The values that follow come from patent EP4635565A1, “PRENYLATED TETRAHYDROQUINOLINES AND QUINOLINES WITH PPAR AGONIST ACTIVITY” (Fundación para la Investigación del Hospital Clínico de la …, priority 2024, dated 2025).

In one data set the target is T1, hPPARβ/δ (Homo sapiens, UniProt Q03181).
T1 sequence (Q03181 171-441): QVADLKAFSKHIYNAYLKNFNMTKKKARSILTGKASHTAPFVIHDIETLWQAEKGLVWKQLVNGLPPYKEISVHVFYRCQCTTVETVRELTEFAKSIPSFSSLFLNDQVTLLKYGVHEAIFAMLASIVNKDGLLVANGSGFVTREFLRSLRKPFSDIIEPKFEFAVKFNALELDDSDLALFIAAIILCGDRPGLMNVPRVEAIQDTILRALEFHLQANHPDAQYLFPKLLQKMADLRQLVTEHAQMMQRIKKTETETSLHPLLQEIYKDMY
The data set is described as follows: PPAR transactivation assay, human chimeric PPAR/Gal4 reporter luciferase system in Cos-7 cells (PPARβ/δ). The format is cell-based. On the procedure: (§1) Transfections were stopped after 16 h by adding DMEM/10% FCS. Cells were detached with trypsin, re-seeded in 96-well plates for 6 h in DMEM/10% FCS, and incubated for 24 h in DMEM/0.2% FCS with increasing concentrations of the test compounds or vehicle (DMSO, 0.1% final concentration). At the end of the experiment, cells were washed once with ice-cold PBS, lysed, and luciferase and β-galactosidase activities were measured. Luciferase activity was normalised to that of the internal control, β-galactosidase. All transfection experiments were performed at least five times.
(§2) EC50 values against human PPARα/Gal4, PPARβ/δ/Gal4 and PPARγ/Gal4 receptors.

The target in the next data set is T2, hPPARγ (Homo sapiens, UniProt P37231).
T2 sequence (P37231 238-505): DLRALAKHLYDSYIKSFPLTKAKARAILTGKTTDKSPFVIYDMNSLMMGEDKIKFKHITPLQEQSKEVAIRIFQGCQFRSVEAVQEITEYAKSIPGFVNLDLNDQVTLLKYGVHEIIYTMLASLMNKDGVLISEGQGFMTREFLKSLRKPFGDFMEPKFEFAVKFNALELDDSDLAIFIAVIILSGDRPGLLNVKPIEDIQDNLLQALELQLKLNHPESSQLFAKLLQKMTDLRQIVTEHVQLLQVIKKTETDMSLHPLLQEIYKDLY
The data set is described as follows: PPAR transactivation assay, human chimeric PPAR/Gal4 reporter luciferase system in Cos-7 cells (PPARγ). Format: cell-based. As to the method:
as §1, §2

The test system of a further data set is Pdk4. The data set is described as follows: Pdk4 mRNA expression by RT-qPCR in L929sA WT cells. Format: cell-based, mouse. The note with it: 10 µM, 6 h. As to the method: RNA was isolated using the RNeasy Purification Kit (Qiagen) according to the manufacturer's instructions. cDNA was synthesised using a PrimeScript kit (Takara). RT-qPCR was performed using Light Cycler 480 SYBR Green I Master Mix (Roche).
Pyruvate Dehydrogenase Kinase 4 gene (Pdk4), a well-known target gene of PPARs, encodes a protein that regulates the phosphorylation and inactivation of the pyruvate dehydrogenase complex in response to physiological conditions. This response switches the energy source from glucose to fatty acids to maintain blood glucose levels to, thereby, increase lipid metabolism. Because it is a well-known target gene of PPARs, the effect of the 2- and 3-prenylated esters of tetrahydroquinolines and quinolines on a Pdk4 region reported to bind PPARα, was evaluated. The L929sA cells that were stably transfected with a PDK4-(PPRE)3-Luc+ reporter gene construct were used.
(Quantitative PCR measures a nucleic acid by following its amplification.)

In data set [1] the test system is ob/ob mice. The data set is described as follows: In vivo study in ob/ob mice, biochemical analysis of blood. The note with it: orally, 10 mg/kg/d, 15 days. On the procedure: (§3) Animal studies were carried out in accordance with Directive 2010/63/EU for experimentation on animals. The handling of the animals and the experimental protocols were approved by the Animal Experimentation Ethics Committee of the University of Valencia (Protocol No. A1469445706311). Six-week-old male ob/ob mice (C57BL/6.Cg-Lepob/J) were supplied by Charles River Laboratories International (Wilmington, MA). Blood samples were collected from mice fasted for 6 hours to determine basal blood glucose levels. The animals, randomly divided into two groups (N ≈ 10-11 per group), were treated daily with vehicle (1% hydroxyethyl cellulose, Sigma-Aldrich) or with tetrahydroquinoline 5a at 10 mg/kg/day, for 15 days orally. After 15 days of treatment, and 6 h of fasting, the mice were anesthetized by inhalation of isoflurane and blood samples were collected in tubes with heparin or EDTA by intracardiac puncture. Plasma samples were obtained and stored at -80°C. Liver and epididymal white adipose tissue were removed and part of both organs were quickly frozen in liquid N2 for qPCR studies.
Plasma levels of total cholesterol and HDL-cholesterol (HDL-c) were determined by enzymatic processes using commercial kits: LabAssay™ Cholesterol (Wako Pure Chemicals Industries, Cape Charles, VA) and Mouse HDL-Cholesterol Assay Kit (Crystal Chem, Elk Grove Village, IL), respectively. Non-HDL cholesterol levels were calculated (total cholesterol - HDL-c). Fasting blood glucose levels were measured using a glucometer (Contour Next, Bayer HealthCare Pharmaceuticals LLC, Berlin, Germany), while insulin levels were determined using the commercial Mouse Insulin ELISA kit (Mercodia, Uppsala, Sweden). The HOMA-IR index was calculated using the following formula: fasting blood glucose (mmol/L) * fasting insulinemia (µU/mL) / 22.5.
Tetrahydroquinoline 5a administered for 15 days (orally, 10 mg/kg/d) to an obese and diabetic mouse model (ob/ob), improved lipid and carbohydrate parameters. Indeed, 5a decreased total cholesterol and non-HDL cholesterol levels, as well as insulin levels and the HOMA-IR index in the blood of oblob mice, compared to vehicle-treated mice (Figures 4A-4D).

Data set [2] has as its system ob/ob mice. The data set is described as follows: Gene expression (qPCR) in liver and epididymal white adipose tissue of ob/ob mice. Format: in vivo. The note with it: epididymal white adipose tissue and/or liver of ob/ob mice, 10 mg/kg/day, 15 days orally. On the procedure: as §3
Gene expression analysis was carried out by real-time qPCR. To this end, total RNA was extracted from liver and epididymal white adipose tissue biopsies using TRIzol reagent (Invitrogen, Carlsbad, CA, USA). The isolated RNA was retro-transcribed using the Maxima First-Strand kit and amplified with a Luminaris Color qPCR MasterMIX (Fermentas, Whaltham, MA, USA) in a 7900 FastSystem thermal cycler. The mRNA levels were normalized to the expression of the constitutive gene cyclophilin.

Data set [3] concerns hPPARα, hPPARβ/δ, and hPPARγ. Kind of data set: PPAR transactivation assays, agonist profile over the three isoforms. The note with it: always with partial activity on the PPARγ isoform.
Where [4] appears, read: compared to vehicle-treated mice.

Consider `CCOC(=O)CC/C(C)=C/CCC1CCc2cc(OCc3ccccc3)ccc2N1C` (stereo not drawn) [Compound 5a, Ethyl (E)-7-(6-(benzyloxy)-1-methyl-1,2,3,4-tetrahydroquinolin-2-yl)-4-methylhept-4-enoate], for which, at hPPARβ/δ (COS-7, read-out: Efficacy (%) at 10 µmol/L PPARβ/δ), the Emax at 10 µM came out at 60%. Moreover, at hPPARβ/δ (human PPARβ/δ/Gal4, Cos-7 cells, concentration range 0.001-10 µmol/L, NA: not active), the concentration for a half-maximal effect (EC50) (in general, the concentration needed to bring the measured effect to its halfway point) was 2.6 µM. Also, the Emax at 10 µM on hPPARγ (COS-7, read-out: Efficacy (%) at 10 µmol/L PPARγ) was 43%. Besides, the response at hPPARγ (human PPARγ/Gal4, Cos-7 cells, concentration range 0.001-10 µmol/L, NA: not active) was half-maximal at 2.7 µM (EC50). For the same molecule, the “expression of Pdk4 mRNA” value in the data set with Pdk4 is listed as “increased expression levels of Pdk4”. Also, in the data set with ob/ob mice [1], the “levels of hepatic transaminase ALT” value is “did not increase” and the “levels of hepatic transaminase AST” value was “did not increase”. Also, the HOMA-IR index result in the data set with ob/ob mice [1] (compared to vehicle, calculated from fasting glucose and insulin) is given as “decreased”. Also, the non-HDL cholesterol levels result in the data set on ob/ob mice [1] (compared to vehicle, total cholesterol - HDL-c) was “decreased”. For the same molecule, in the data set on ob/ob mice [1] (setting [4]), the insulin levels entry is “decreased” and the total cholesterol levels result is “decreased”. For the same molecule, in the data set on ob/ob mice [2], the “expression of Acox1” value is recorded as “increased”, the “expression of Cpt1a” value was “increased” and the “expression of Pdk4” value was “increased”. Besides, the “PPAR agonist activity profile” value in data set [3] is listed as “pan-PPAR agonist activity”.
